# Test results from PubChem BioAssay AID328 (DTP/NCI, 2004).
# Toxic doses and inconclusive results are not listed.
# Test system: BDF1 mice, P388 leukemia ip, median survival T/C
# Experiment: NCI In Vivo Anticancer Drug Screen. Data for tumor model P388 Leukemia (intraperitoneal) in B6D2F1 (BDF1) mice
# Settings: endpoint: median survival time, higher = longer survival
# Outline: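 In tumour-bearing mice, survival after compound treatment is set against the vehicle group and given as a quotient.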
# [1] = dose: 100.0 mg/kg/injection, schedule: Q01DX009 (ip), vehicle: saline
# [2] = dose: 100.0 mg/kg/injection, schedule: Q01DX001 (ip), vehicle: Klucel (hydroxypropylcellulose) (HPC)
# [3] = dose: 200.0 mg/kg/injection, schedule: Q01DX001 (ip), vehicle: Klucel (hydroxypropylcellulose) (HPC)
# [4] = dose: 400.0 mg/kg/injection, schedule: Q01DX001 (ip), vehicle: Klucel (hydroxypropylcellulose) (HPC)
# [5] = dose: 50.0 mg/kg/injection, schedule: Q01DX009 (ip), vehicle: saline with Tween-80
# [6] = dose: 100.0 mg/kg/injection, schedule: Q01DX009 (ip), vehicle: saline with Tween-80
# [7] = dose: 100.0 mg/kg/injection, schedule: Q04DX003 (ip), vehicle: saline with Tween-80
# [8] = dose: 200.0 mg/kg/injection, schedule: Q01DX009 (ip), vehicle: saline with Tween-80
# [9] = dose: 200.0 mg/kg/injection, schedule: Q04DX003 (ip), vehicle: saline with Tween-80
smiles,measurement,setting,value
Cc1cc(C)c(CCl)cc1CCl,T/C,"dose: 3.0 mg/kg/injection, schedule: Q01DX009 (ip), vehicle: saline with Tween-80",104 % of control
same,T/C,"dose: 4.5 mg/kg/injection, schedule: Q01DX009 (ip), vehicle: saline with Tween-80",116 % of control
same,T/C,"dose: 6.25 mg/kg/injection, schedule: Q01DX009 (ip), vehicle: saline with Tween-80",118 % of control
same,T/C,"dose: 16.5 mg/kg/injection, schedule: Q01DX009 (ip), vehicle: saline with Tween-80",150 % of control
same,T/C,"dose: 37.5 mg/kg/injection, schedule: Q01DX009 (ip), vehicle: saline with Tween-80",120 % of control
Cc1ccc2c(ccc(C)[n+]2C)c1,T/C,"dose: 67.0 mg/kg/injection, schedule: Q01DX009 (ip), vehicle: saline",183 % of control
same,T/C,[1],150 % of control
Cn1c(=O)[nH]c2ccccc2c1=O,T/C,[2],104 % of control
same,T/C,[3],104 % of control
same,T/C,[4],107 % of control
CCCN([Si](C)(C)C)[Si](C)(C)C,T/C,[5],107 % of control
same,T/C,[6],107 % of control
same,T/C,[7],100 % of control
same,T/C,[8],100 % of control
same,T/C,[9],104 % of control
Cc1c2ccc3ccccc3c2c[n+]2ccccc12,T/C,"dose: 5.0 mg/kg/injection, schedule: Q01DX009 (ip), vehicle: saline with Tween-80",118 % of control
same,T/C,"dose: 5.0 mg/kg/injection, schedule: Q04DX003 (ip), vehicle: saline with Tween-80",108 % of control
same,T/C,"dose: 10.0 mg/kg/injection, schedule: Q01DX009 (ip), vehicle: saline with Tween-80",86 % of control
same,T/C,"dose: 10.0 mg/kg/injection, schedule: Q04DX003 (ip), vehicle: saline with Tween-80",108 % of control
same,T/C,"dose: 20.0 mg/kg/injection, schedule: Q04DX003 (ip), vehicle: saline with Tween-80",116 % of control
O=C1CN(c2ccccc2)CC(=O)N2Cc3ccccc3CN12,T/C,"dose: 100.0 mg/kg/injection, schedule: Q01DX005 (ip), vehicle: saline with Tween-80",101 % of control
CC(C)(C)CC(C)(C)c1ccc(OCCOS(=O)(=O)c2cccc([N+](=O)[O-])c2)cc1,T/C,[5],109 % of control
same,T/C,[6],95 % of control
same,T/C,[8],118 % of control
COC(=O)CSC/C(=N\Nc1ccccc1)c1ccccc1,T/C,[2],95 % of control
same,T/C,[3],100 % of control
same,T/C,[4],109 % of control
COC1C=COC2(C)Oc3c(C)c(O)c4c(c3C2=O)/C(=N/C2CCC(O)OC2C)C=C(NC(=O)/C(C)=C\C(=O)C2CC2C(O)C(C)C(O)C(C)C(OC(C)=O)C1C)C4=O (stereo not given),T/C,"dose: 4.6 mg/kg/injection, schedule: Q01DX009 (ip), vehicle: saline with Tween-80",101 % of control
same,T/C,"dose: 9.25 mg/kg/injection, schedule: Q01DX009 (ip), vehicle: saline with Tween-80",105 % of control
same,T/C,"dose: 18.5 mg/kg/injection, schedule: Q01DX009 (ip), vehicle: saline with Tween-80",89 % of control
same,T/C,"dose: 37.0 mg/kg/injection, schedule: Q01DX009 (ip), vehicle: saline with Tween-80",101 % of control
C=C(C(=O)OC1CC2CCC(C1)N2C)c1ccccc1 (stereo not given),T/C,"dose: 1.25 mg/kg/injection, schedule: Q01DX009 (ip), vehicle: saline",100 % of control
same,T/C,"dose: 2.5 mg/kg/injection, schedule: Q01DX009 (ip), vehicle: saline",100 % of control
same,T/C,"dose: 5.0 mg/kg/injection, schedule: Q01DX009 (ip), vehicle: saline",100 % of control
same,T/C,"dose: 10.0 mg/kg/injection, schedule: Q01DX009 (ip), vehicle: saline",90 % of control
CCOC(=O)Cn1c(C(F)(F)F)nc2nc(Cl)c(Cl)nc21,T/C,[7],110 % of control
same,T/C,[9],110 % of control
same,T/C,"dose: 400.0 mg/kg/injection, schedule: Q04DX003 (ip), vehicle: saline with Tween-80",110 % of control
CC(C)CCOC(=O)CN(CC(=O)OCCC(C)C)c1ccccc1,T/C,[6],100 % of control
same,T/C,[8],100 % of control
same,T/C,"dose: 400.0 mg/kg/injection, schedule: Q01DX009 (ip), vehicle: saline with Tween-80",95 % of control
NNC(=O)c1ccccn1,T/C,"dose: 25.0 mg/kg/injection, schedule: Q01DX009 (ip), vehicle: saline",92 % of control
same,T/C,"dose: 50.0 mg/kg/injection, schedule: Q01DX009 (ip), vehicle: saline",100 % of control
same,T/C,[1],100 % of control
same,T/C,"dose: 100.0 mg/kg/injection, schedule: Q04DX003 (ip), vehicle: saline",88 % of control
